According to the NIST ThermoML archive (doi:10.1021/je060107n):
Numbers after ± are expanded uncertainties.

Test: mn = molality of the nth substance listed, in mol/kg
Settings: 101 kPa, Liquid; for mass density: Pycnometric method; for viscosity: Capillary tube (Ostwald / Ubbelohde) method; for speed of sound: Linear variable-path acoustic interferometer

O=[N+]([O-])[O-].O=[N+]([O-])[O-].[Mg+2] [magnesium nitrate] + O
Settings	mass density [kg/m3]	speed of sound [m/s]	viscosity [mPa·s]
314.7 K, m1 = 0.0528	996.94 ± 0.66	–	–
315 K, m1 = 0.0145	992.8 ± 0.65	–	–
315.05 K, m1 = 1.525	1135.2 ± 0.8	–	–
315.1 K, m1 = 3.501	1288.9 ± 0.9	–	–
315.15 K, m1 = 3.757	1305.4 ± 0.9	–	–
315.25 K, m1 = 0.9898	1088.5 ± 0.8	–	–
315.25 K, m1 = 1.262	1112.4 ± 0.8	–	–
315.3 K, m1 = 3.17	1270.8 ± 0.8	–	–
315.6 K, m1 = 4.728	1367.6 ± 1.1	–	–
315.8 K, m1 = 5.134	1391.1 ± 1	–	–
315.95 K, m1 = 0.3405	1025.4 ± 0.7	–	–
316.1 K, m1 = 0.896	1079 ± 0.7	–	–
316.1 K, m1 = 2.793	1238.2 ± 0.9	–	–
316.15 K, m1 = 1.827	1162.1 ± 0.8	–	–
316.25 K, m1 = 4.039	1322.3 ± 0.9	–	–
316.35 K, m1 = 4.97	1380.1 ± 1	–	–
316.45 K, m1 = 5.282	1399.6 ± 1	–	–
316.75 K, m1 = 0.6173	1052.2 ± 0.8	–	–
317.15 K, m1 = 0.0528	995.93 ± 0.66	–	–
317.15 K, m1 = 3.501	1287.7 ± 1	–	–
317.25 K, m1 = 1.525	1134 ± 0.8	–	–
317.25 K, m1 = 3.096	1259.7 ± 1.2	–	–
317.35 K, m1 = 2.493	1213.8 ± 1	–	–
317.35 K, m1 = 3.757	1304.1 ± 0.9	–	–
317.5 K, m1 = 0.9898	1087.3 ± 0.8	–	–
317.5 K, m1 = 1.262	1111.2 ± 0.8	–	–
317.55 K, m1 = 3.118	1260.5 ± 0.8	–	–
317.55 K, m1 = 4.285	1337.9 ± 1	–	–
317.75 K, m1 = 2.131	1186 ± 0.9	–	–
317.85 K, m1 = 0.2491	1016.9 ± 0.7	–	–
317.95 K, m1 = 4.883	1372.7 ± 1	–	–
318.15 K, m1 = 0.0145	–	1540.2 ± 1.9	0.6082 ± 0.008
318.15 K, m1 = 0.0528	–	1541.4 ± 1.9	0.62 ± 0.0082
318.15 K, m1 = 0.2491	–	1554.4 ± 1.9	0.655 ± 0.0086
318.15 K, m1 = 0.3405	–	1552.3 ± 1.9	–
318.15 K, m1 = 0.5931	–	–	0.7284 ± 0.0096
318.15 K, m1 = 0.6173	–	1572 ± 1.9	–
318.15 K, m1 = 0.896	–	1590 ± 1.9	–
318.15 K, m1 = 0.9898	–	1596.3 ± 1.9	0.8367 ± 0.011
318.15 K, m1 = 1.262	–	1612.6 ± 1.9	0.9225 ± 0.012
318.15 K, m1 = 1.525	–	1629.5 ± 1.9	–
318.15 K, m1 = 1.827	1160.9 ± 0.8	1650.5 ± 1.9	1.117 ± 0.015
318.15 K, m1 = 2.131	–	1668.7 ± 2	1.245 ± 0.016
318.15 K, m1 = 2.493	–	1689.3 ± 2	–
318.15 K, m1 = 2.584	–	–	1.473 ± 0.019
318.15 K, m1 = 2.793	–	1708.7 ± 2	–
318.15 K, m1 = 3.096	–	–	1.772 ± 0.023
318.15 K, m1 = 3.118	–	1727.2 ± 2	–
318.15 K, m1 = 3.17	–	1733.9 ± 2	–
318.15 K, m1 = 3.329	–	–	1.935 ± 0.025
318.15 K, m1 = 3.501	–	1748.8 ± 2	–
318.15 K, m1 = 3.704	–	–	2.216 ± 0.029
318.15 K, m1 = 3.757	–	1761.7 ± 2	–
318.15 K, m1 = 4.039	–	–	2.545 ± 0.033
318.15 K, m1 = 4.051	1321.2 ± 0.9	1776 ± 2	–
318.15 K, m1 = 4.285	–	1787.8 ± 2	–
318.15 K, m1 = 4.403	–	1794.4 ± 2	–
318.15 K, m1 = 4.728	–	–	3.456 ± 0.045
318.15 K, m1 = 4.883	–	1818.4 ± 2.1	–
318.15 K, m1 = 4.907	–	–	3.76 ± 0.049
318.15 K, m1 = 5.134	–	1832.8 ± 2.1	–
318.15 K, m1 = 5.282	–	–	4.426 ± 0.058
318.25 K, m1 = 3.704	1300.4 ± 0.9	–	–
318.35 K, m1 = 2.584	1221.6 ± 0.8	–	–
318.4 K, m1 = 0.896	1077.9 ± 0.7	–	–
318.5 K, m1 = 4.97	1378.6 ± 1	–	–
318.7 K, m1 = 1.694	1148.1 ± 0.9	–	–
318.8 K, m1 = 4.403	1344 ± 0.9	–	–
318.8 K, m1 = 5.282	1398.1 ± 1	–	–
318.9 K, m1 = 0.5931	1048.4 ± 0.8	–	–
319.05 K, m1 = 0.6173	1051.1 ± 0.7	–	–
319.35 K, m1 = 1.525	1132.8 ± 0.8	–	–
319.35 K, m1 = 3.757	1302.8 ± 1	–	–
